# Laboratory results from patent US20100099088A1, “RELIABLE DETECTION OF VANCOMYCIN-INTERMEDIATE STAPHYLOCOCCUS AUREUS” (priority 2006, published 2010).
# Like-named read-outs stand apart in the source and are kept apart here.
# How the values were obtained:
# [1] = tested on: Staphylococcus aureus hVISA/VISA strains; set-up: key: CG, confluent growth; IC, individual colonies; NG, no growth; conditions: cited from earlier work
# [2] = tested on: Staphylococcus aureus strains (MRSA, hVISA/VISA, in vitro-selected); assay: CLSI-approved (standard) Etest, vancomycin MIC, 0.5 McFarland inoculum; type: cell-based; conditions: for MIC: Staphylococcus aureus; for CLSI Etest category: key: S = sensitive; I = intermediate; R = resistant
# Experimental: (§1) Vancomycin MICs were determined using standard Etest methods. Briefly, colonies from a fresh overnight plate were resuspended in saline to a turbidity equivalent to 0.5 McFarland units. This suspension was swabbed onto Mueller-Hinton agar plates, allowed to dry, and overlaid with a Vancomycin Etest strip (AB Biodisk). Plates were incubated at 37° C. for 48 h and interpreted. […] For some MRSA strains, the macromethod Etest was also applied, using an inoculum equivalent to 2 McFarland units on Brain-Heart Infusion agar plates.
# [3] = tested on: Staphylococcus aureus strains (MRSA, hVISA/VISA); assay: Modified (macromethod) Etest, vancomycin MIC, 2 McFarland inoculum; type: cell-based; conditions: for MIC: Staphylococcus aureus; for Modified Etest category: 2 McF inoculum; for Modified Etest category: key: S = sensitive; I = intermediate; R = resistant
# Experimental: as §1
# [4] = tested on: Staphylococcus aureus strains (MRSA, hVISA/VISA); conditions: cited from earlier work; for Modified Etest category: key: S = sensitive; I = intermediate; R = resistant
# [5] = tested on: SAV2095 (SEQ ID NO.:1) expression in S. aureus; assay: SAV2095 homologue mRNA expression by qRT-PCR after growth in subinhibitory vancomycin; type: cell-based, Staphylococcus aureus
# Experimental: Overnight cultures of strains were diluted 1/100 in tryptic soy broth containing either 0 (for all strains), 1 (for selected MRSA), or 3 (for selected VISA) mg/L vancomycin and grown to mid-log phase. Cells from 1 mL culture were harvested and treated with RNAProtect (Qiagen). Cells were subsequently treated with lysostaphin for 30 min at 37° C., and total RNA was isolated from each sample and each condition using the RNeasy Kit (Qiagen). Samples were then treated with Turbo DNA-free (Ambion, Austin, Tex.) to remove any contaminating genomic DNA. RNA quantity and quality was assessed using an Agilent Technologies 2100 bioanalyzer and RNA 6000 Nano LabChip kit (Agilent, Mountain View, Calif.). Complementary DNA (cDNA) was generated from 688 ng of total RNA using a random primer hexamer following the protocol for Superscript II (Invitrogen, Carlsbad, Calif.) in a 20 μL volume.
# Equal amounts (34 ng) of cDNA were run in triplicate and amplified in a 15 μl reaction containing 7.5 μL of 2× Universal PCR Master Mix (Applied Biosystems, Foster City, Calif.), 10 nM of Z-tailed forward primer, 100 nM of reverse primer, 100 nM of Amplifluor Uniprimer probe (Chemicon, Temecula, Calif.), and 1 μL of DNA target. Moreover, no-template controls were used as recommended. The mixture was incubated at 50° C. for 2 min, at 95° C. for 4 min, and then cycled at 95° C. for 15 sec and at 55° C. for 40 sec 55 times using the Applied Biosystems Prism 7900 Sequence Detector. Amplification efficiencies were validated and normalized to expression of the 16S rRNA gene as a standard, and quantity of target and standard genes were calculated according to a standard curve. Primers were designed using Primer Express 2.0 (Applied Biosystems) and their sequence data are the following: for SAV2095, forward, 5-Ztail-[…]-3, reverse, 5-[…]-3; and for 16S rRNA, forward, 5-Ztail-[…]-3, reverse, 5-GCTTAAGGGTTGCGCTCGT-3. Amplicons were detected using the Amplifluor™ UniPrimerr™ system where forward primers used contained the 5′ Z sequence ACTGAACCTGACCGTACA. As it is appreciated by a person skilled in the art, it is to be understood herein that other primers may be used for amplifying and detecting SAV2095 without departing from the scope of the invention. A person skilled in the art knows how to design primers for any given amplification assay. For example, in a multiplex assay, primers would need to have similar melting temperatures and low complementarity, etc.
# [6] = strain 160013 (NRS283), 2 McF inoculum
# [7] = strain BR 5 (NRS56), 2 McF inoculum
# [8] = strain HIP07930 (NRS22), 2 McF inoculum
# [9] = strain HIP09433 (NRS27), 2 McF inoculum
# [10] = strain HIP09662 (NRS28), 2 McF inoculum
# [11] = strain HIP12864 (NRS402), 2 McF inoculum
# [12] = strain LIM 1 (NRS35), 2 McF inoculum
# [13] = strain LIM 3 (NRS37), 2 McF inoculum
# [14] = strain LY-1999 0620-01 (NRS63), 2 McF inoculum
# [15] = strain LY-1999 0620-02 (NRS64), 2 McF inoculum
# [16] = strain Mu3 (NRS2), 2 McF inoculum
# [17] = strain Mu50 (NRS1), 2 McF inoculum
# [18] = strain SA MER (NRS11), 2 McF inoculum
# [19] = strain SA MER-S20 (NRS14), 2 McF inoculum
structure (smiles),measurement,setting,value
CN[C@H](CC(C)C)C(=O)N[C@H]1C(=O)N[C@@H](CC(N)=O)C(=O)N[C@H]2C(=O)N[C@H]3C(=O)N[C@H](C(=O)N[C@H](C(=O)O)c4cc(O)cc(O)c4-c4cc3ccc4O)[C@H](O)c3ccc(c(Cl)c3)Oc3cc2cc(c3O[C@@H]2O[C@H](CO)[C@@H](O)[C@H](O)[C@H]2O[C@H]2C[C@](C)(N)[C@H](O)[C@H](C)O2)Oc2ccc(cc2Cl)[C@H]1O [vancomycin],Agar screen growth,"[1]; strain 160013 (NRS283), 48 h incubation",IC (48)
same,Agar screen growth,"[1]; strain BR 5 (NRS56), 24 h incubation",CG (24)
same,Agar screen growth,"[1]; strain HIP07930 (NRS22), 48 h incubation",IC (48)
same,Agar screen growth,"[1]; strain HIP09433 (NRS27), 72 h incubation",NG (72)
same,Agar screen growth,"[1]; strain HIP09662 (NRS28), 72 h incubation",NG (72)
same,Agar screen growth,"[1]; strain HIP12864 (NRS402), 24 h incubation",CG (24)
same,Agar screen growth,"[1]; strain LIM 1 (NRS35), 72 h incubation",NG (72)
same,Agar screen growth,"[1]; strain LIM 3 (NRS37), 72 h incubation",NG (72)
same,Agar screen growth,"[1]; strain LY-1999 0620-01 (NRS63), 48 h incubation",IC (48)
same,Agar screen growth,"[1]; strain LY-1999 0620-02 (NRS64), 72 h incubation",NG (72)
same,Agar screen growth,"[1]; strain Mu3 (NRS2), 72 h incubation",NG (72)
same,Agar screen growth,"[1]; strain Mu50 (NRS1), 24 h incubation",CG (24)
same,Agar screen growth,"[1]; strain NRS118, 24 h incubation",CG (24)
same,Agar screen growth,"[1]; strain SA MER (NRS11), 72 h incubation",NG (72)
same,Agar screen growth,"[1]; strain SA MER-S20 (NRS14), 24 h incubation",CG (24)
same,MIC,"[2]; ATCC 29213 / MRSA / VISA, control strain S. aureus ATCC29213, read-out: MIC (standard Etest)",1.5 µg/mL
same,MIC,"[2]; in vitro strain C1V8 derived from CMRSA-1, read-out: CLSI Etest MIC",10 µg/mL
same,MIC,"[2]; in vitro strain C1V30 derived from CMRSA-1, read-out: CLSI Etest MIC",16 µg/mL
same,MIC,"[2]; in vitro strain C2V4 derived from CMRSA-2, read-out: CLSI Etest MIC",6 µg/mL
same,MIC,"[2]; in vitro strain C2V8 derived from CMRSA-2, read-out: CLSI Etest MIC",9 µg/mL
same,MIC,"[2]; in vitro strain C2V24 derived from CMRSA-2, read-out: CLSI Etest MIC",30 µg/mL
same,MIC,"[2]; in vitro strain C3V24 derived from CMRSA-3, read-out: CLSI Etest MIC",20 µg/mL
same,MIC,"[2]; in vitro strain C4V8 derived from CMRSA-4, read-out: CLSI Etest MIC",5 µg/mL
same,MIC,"[2]; read-out: CLSI Etest MIC, in vitro strain C1V4 derived from CMRSA-1",5 µg/mL
same,MIC,"[2]; strain CMRSA-1 (MRSA), 0.5 McF inoculum, read-out: CLSI Etest MIC",1.5 µg/mL
same,MIC,"[2]; strain CMRSA-2 (MRSA), 0.5 McF inoculum, read-out: CLSI Etest MIC",1.5 µg/mL
same,MIC,"[2]; strain CMRSA-4 (MRSA), 0.5 McF inoculum, read-out: CLSI Etest MIC",1 µg/mL
same,CLSI Etest category,[2]; in vitro strain C1V4 derived from CMRSA-1,I
same,CLSI Etest category,[2]; in vitro strain C1V8 derived from CMRSA-1,I
same,CLSI Etest category,[2]; in vitro strain C1V30 derived from CMRSA-1,I
same,CLSI Etest category,[2]; in vitro strain C2V4 derived from CMRSA-2,I
same,CLSI Etest category,[2]; in vitro strain C2V8 derived from CMRSA-2,I
same,CLSI Etest category,[2]; in vitro strain C2V24 derived from CMRSA-2,I
same,CLSI Etest category,[2]; in vitro strain C3V4 derived from CMRSA-3,S
same,CLSI Etest category,[2]; in vitro strain C3V8 derived from CMRSA-3,I
same,CLSI Etest category,[2]; in vitro strain C3V24 derived from CMRSA-3,I
same,CLSI Etest category,[2]; in vitro strain C4V8 derived from CMRSA-4,I
same,CLSI Etest category,[2]; in vitro strain C4V20 derived from CMRSA-4,I
same,CLSI Etest category,"[2]; strain CMRSA-1 (MRSA), 0.5 McF inoculum",S
same,CLSI Etest category,"[2]; strain CMRSA-2 (MRSA), 0.5 McF inoculum",S
same,CLSI Etest category,"[2]; strain CMRSA-3 (MRSA), 0.5 McF inoculum",S
same,CLSI Etest category,"[2]; strain CMRSA-4 (MRSA), 0.5 McF inoculum",S
same,MIC,"[3]; read-out: Modified Etest MIC, strain CMRSA-1 (MRSA), 2 McF inoculum",8 µg/mL
same,MIC,"[3]; read-out: Modified Etest MIC, strain CMRSA-2 (MRSA), 2 McF inoculum",3 µg/mL
same,MIC,"[3]; read-out: Modified Etest MIC, strain CMRSA-3 (MRSA), 2 McF inoculum",3 µg/mL
same,MIC,"[3]; read-out: Modified Etest MIC, strain CMRSA-4 (MRSA), 2 McF inoculum",2 µg/mL
same,Modified Etest category,[3]; strain CMRSA-1 (MRSA),I
same,Modified Etest category,[3]; strain CMRSA-2 (MRSA),S
same,Modified Etest category,[3]; strain CMRSA-3 (MRSA),S
same,Modified Etest category,[3]; strain CMRSA-4 (MRSA),S
same,Modified Etest MIC,[4]; [6],8 mg/L
same,Modified Etest category,[4]; [6],I
same,Modified Etest MIC,[4]; [7],16 mg/L
same,Modified Etest category,[4]; [7],I
same,Modified Etest MIC,[4]; [8],8 mg/L
same,Modified Etest category,[4]; [8],I
same,Modified Etest MIC,[4]; [9],8 mg/L
same,Modified Etest category,[4]; [9],I
same,Modified Etest MIC,[4]; [10],8 mg/L
same,Modified Etest category,[4]; [10],I
same,Modified Etest MIC,[4]; [11],48 mg/L
same,Modified Etest category,[4]; [11],R
same,Modified Etest MIC,[4]; [12],4 mg/L
same,Modified Etest category,[4]; [12],S
same,Modified Etest MIC,[4]; [13],6 mg/L
same,Modified Etest category,[4]; [13],I
same,Modified Etest MIC,[4]; [14],16 mg/L
same,Modified Etest category,[4]; [14],I
same,Modified Etest MIC,[4]; [15],6 mg/L
same,Modified Etest category,[4]; [15],I
same,Modified Etest MIC,[4]; [16],6 mg/L
same,Modified Etest category,[4]; [16],I
same,Modified Etest MIC,[4]; [17],12 mg/L
same,Modified Etest category,[4]; [17],I
same,Modified Etest MIC,"[4]; strain NRS118, 2 McF inoculum",24 mg/L
same,Modified Etest category,"[4]; strain NRS118, 2 McF inoculum",I
same,Modified Etest MIC,[4]; [18],8 mg/L
same,Modified Etest category,[4]; [18],I
same,Modified Etest MIC,[4]; [19],24 mg/L
same,Modified Etest category,[4]; [19],I
same,Effect on SAV2095 expression level,[5]; MRSA strains grown with subinhibitory vancomycin 1 mg/L,does not consistently increase
same,Effect on SAV2095 expression level,"[5]; MRSA strains grown with subinhibitory vancomycin 1 mg/L, listed as Vn",not in MRSA
same,Effect on SAV2095 expression level,"[5]; VISA strains grown with subinhibitory vancomycin 3 mg/L, p<0.05",consistently increased further
same,Effect on SAV2095 expression level,"[5]; VISA strains grown with subinhibitory vancomycin 3 mg/L, p<0.05, listed as Vn",increased expression of SAV2095
